Measurements taken from patent publication US20090054527A1, “Administration of capsaicinoids” (AlgoRx, priority 2002, published 2009).
“And” between values parts separate entries of the source, which are not always exact repeats. Equal values may be shown once. Read-outs that look alike come from different tables or passages of the source.

Legend:
[1] = system: subjects with osteoarthritis of the knee; test: Osteoarthritis of the knee safety study (Phase 1): intra-articular purified capsaicin after lignocaine; safety, tolerability, VAS pain; assay type: in vivo, human
Description: The primary objective of the study was to evaluate the safety and tolerability of intra-articular capsaicin, when co-administered with intra-articular local anesthetic, compared to placebo, in subjects with end-stage osteoarthritis of the knee, already scheduled to receive knee replacements.
The study was designed to include 16 evaluation subjects. […] Sixteen subjects completed the study.
Patients were treated randomly and in double-blind fashion in four treatment groups, with each group having a progressively longer interval between the intra-articular administration of study medication and subsequent total knee replacement (2, 4, 7, and 14 days). […] Gross and microscopic pathology analysis was completed for each treatment group before the next treatment group was treated.
(§1) Each subject had 3 study visits: a Screening Day (Day −7 to −1), the Treatment Day (Day 0), and a Post-Treatment Day (scheduled for Day +2, +4, +7, or +14). On the Treatment Day the subject was randomized, pre-treatment evaluation was performed. The patients were brought into the procedure room, and a VAS pain score was taken (0 mm—no pain, 100 mm—extreme pain). Once the patient had marked his or her pain on the card, he/she was prepped for knee cannulation. Once the cannula was placed, the patient received by intra-articular infiltration, 3 mg/kg (maximum dose of 200 mg) of 2% lignocaine into the knee scheduled to be replaced.
VAS pain scores as well as verbal reports were taken immediately following administration, as well as prior to knee replacement surgery. No subjects discontinued from the study due to adverse events.
On the Post-Treatment Day, study evaluation was performed followed by the scheduled knee replacement, with intra-operative bone and soft tissue biopsies performed for subsequent examination. […] This therefore left the 3 placebo and 9 active patients from the 4 day, 7 day, and 14 day cohorts.

clinical = test: clinical; parameters: species or system human; settings: in vivo
Description: The pharmacokinetic parameters of Cmax, Tmax, AUC(0−tlast) and t½ were evaluated.

[2] = system: subjects with osteoarthritis of the knee; test: Osteoarthritis of the knee efficacy study (Phase 2): NRS pain score; assay type: in vivo, human; settings: 1000 μg intra-articular, three weeks following administration, P=0.03
Description: as §1, with “The study is designed to include 12 evaluation subjects (Patients suffering a defined pain: >40 mm on VAS). […] Patients are treated randomly and in double-blind fashion. Gross and microscopic pathology analysis are completed for each treatment group. Each” for “Each”, “has” for “had”, “is” for “was”, “patient is” for “patients were”, “marks” for “had marked”, “receives,” for “received”
VAS pain scores as well as verbal reports are taken immediately following administration, as well as prior to knee replacement surgery. On the Post-Treatment Day, a study evaluation is performed followed by the scheduled knee replacement, with intra-operative bone and soft tissue biopsies performed for subsequent examination. […]
Changes in NRS (Numerical Rating Scale) pain scores were measured at three weeks following administration.

[3] = system: subjects undergoing transpositional osteotomy (bunionectomy); test: Bunionectomy efficacy study (Phase II): capsaicin dripped into the wound before closure; VAS pain and rescue medication; assay type: in vivo, human; settings: for VAS pain score at the operation site (mean +/− SEM): 1000 μg, n = 11
Description: The primary efficacy endpoint was the proportion of subjects in each treatment group requiring opioid analgesia in the first 24 hours post-operatively. The proportions were compared amongst treatment groups using the Cochran-Haenszel test. Secondary efficacy end points included: i) proportion of subjects in each treatment group requiring opioid analgesia in the first 36 hour period post-operatively (Similarly, the proportions were compared amongst treatment groups using the Cochran-Haenszel test); ii) proportion of subjects in each treatment group requiring opioid analgesia in the 10 day period post-operatively (Similarly, the proportions were compared amongst treatment groups using the Cochran-Haenszel test); iii) time to first usage of opioid analgesia in each treatment group (a survival analysis approach will be used: the product-limit (Kaplan-Meier) method will be applied to time to first usage of opioid analgesia. The median time to first usage of opioid analgesia will be estimated in both treatment groups. Pairwise comparisons will be performed to test for equality of the survival curves between the 2 treatment groups using both the log-rank and the Wilcoxon test); iv) total usage of analgesia in each treatment group (the total usage of analgesia will be compared by an analysis of variance with treatment and center as independent variables. A pairwise comparison will be performed between the treatment groups); and v) VAS assessment of pain at the site of operation in each treatment group (The VAS score at each time point will be compared by an analysis of variance with treatment and center as independent variables. A pairwise comparison will be performed between the treatment groups). […] The efficacy analysis was performed on the data obtained ten days postoperatively. The safety analysis was performed based on the safety data for the entire study, including the 6 week and 12 week follow-up periods. The blind was broken at the time the efficacy analysis was performed. However, the individual treatment assignment was available to the statistical analysis group only. All other personnel involved in the study, including the Investigator, study monitor and proprietary staff, remained blinded until the entire study was completed.
The study was designed to include 40 evaluation subjects. […] Each subject had six (6) study visits: a Screening Day (Day −28 to −1), an Operation Day (Day 0), and four (4) Follow-up visits (scheduled for Days 3, 10 and weeks 6 and 12).
On Operation Day (Day 0) the following was performed: a) Pre-operation: Prior to the initiation of an ankle block, inclusion/exclusion criteria assessment was performed. […] Immediately prior to wound closure, the Investigator slowly dripped the study medication (4 mL) from a syringe into the wound, ensuring even tissue exposure. The wound was then be closed according to normal practices and procedures.
In the 24 hours following administration of study medication, vital signs (supine pulse rate and blood pressure) were recorded at 1, 2, 4 and 24 hours post administration. VAS assessment of pain at the operation site was performed at 1, 4, 8, 12 and 24 hours post administration. In those instances where VAS measurements coincide with blood sampling procedures, the VAS assessment was performed first. […] The quantity of each blood sample was 10 mL. Laboratory safety assessments, e.g., haematology, biochemistry, urinalysis were performed at 24 hours post administration. Adverse events were spontaneously reported by the subject and recorded. Rescue analgesia medication was provided to the subject if required (initially diclofenac 50 mg, repeated at 8 hourly intervals if necessary). When diclofenac was judged by the Investigator to provide inadequate pain relief then the subject was provided with alfentanil 1 mg, repeated at 6 hourly intervals, if necessary.

[4] = cited from earlier work
[5] = system: radiation induced hyperalgesia; settings: systemic, cited from earlier work
[6] = system: inflammatory and neuropathic pain; settings: formalin test and spinal nerve ligation; cited from earlier work
[7] = human, in vivo; cited from earlier work

COc1cc(CNC(=O)CCCC/C=C/C(C)C)ccc1O [purified capsaicin, N-(4-hydroxy-3-methoxybenzyl)-8-methylnon-trans-6-enamide]
incidence of post injection hyperalgesia ([1]; 10 μg dose group): no subjects
patients reporting transient burning pain immediately following instillation ([1]; 10 μg intra-articular): 0 of 4
duration of post-administration (hyper)algesic pain, per subject ([1]; 100 μg dose group): 9 min
incidence of post injection hyperalgesia ([1]; 100 μg dose group): 1 subject
subjects requiring intervention for post-injection (hyper)algesia ([1]; 100 μg dose group): 1 subject
patients reporting transient burning pain immediately following instillation ([1]; 100 μg intra-articular): 1 of 4
duration of post-administration (hyper)algesic pain, per subject ([1]; 300 μg dose group): 17 minutes and 25 minutes (2×) and 42 minutes
incidence of post injection hyperalgesia ([1]; 300 μg dose group): 4 subjects
subjects requiring intervention for post-injection (hyper)algesia ([1]; 300 μg dose group): 4 subjects
patients reporting transient burning pain immediately following instillation ([1]; 300 μg intra-articular): 4 of 4
reduction of VAS pain score, before administration vs day of surgery ([1]; 9 active patients of the 4, 7 and 14 day cohorts, doses 10-300 μg pooled): 62±14%
effects on laboratory safety parameters or vital signs ([1]; 10-300 μg intra-articular): no treatment related effects
effects on soft tissue, cartilage or bone upon histopathological examination ([1]; 10-300 μg intra-articular): no treatment related effects
erythema, edema or hemorrhage at the site of injection ([1]; 10-300 μg intra-articular): no treatment related signs
gross and microscopic pathology ([1]; 10-300 μg intra-articular): normal
leakage of study drug from the joint space ([1]; 10-300 μg intra-articular): low leakage
systemic side effects ([1]; 10-300 μg intra-articular): No treatment related systemic side effects
median decrease from baseline to pre-operative time point in VAS for pain at the target knee, vs placebo ([1]; all 3 capsaicin dose groups): substantially greater
tolerability ([1]; all dose levels (10, 100, 300 μg)): well tolerated
onset of post-administration (hyper)algesia after administration ([1]; all episodes, 100 and 300 μg): ≤ 5 min
effect on proprioception at the injected knee ([1]; any dose group, any time point): no discernable effect
indication of efficacy on VAS pain ([1]; any of the dose levels (10, 100, 300 μg)): No clear treatment related indication of efficacy
Tmax (clinical; human, 300 ug): 30 min
half-life (clinical; human, 300 ug, terminal exponential half life, per subject): 19.6 min
plasma concentrations compared with the 100 μg and 300 μg dose groups (clinical): clearly lower
final NRS (Numerical Rating Scale) pain score [2]: 3.97
time at which a subject required rescue, per subject ([3]; 1000 μg prior to wound closure): 1 h and 4 h and 5 h and 8 h and 12 h
study subjects requiring rescue ([3]; 1000 μg prior to wound closure, 72 hours, n=11): 45%
subjects that did not rescue in 72 hours ([3]; 1000 μg prior to wound closure, n=11): 6 subjects
VAS pain score at the operation site (mean +/− SEM) ([3]; 1 hr): 11.1 +/− 7.3
VAS pain score at the operation site (mean +/− SEM) ([3]; 8 hr): 5.5 +/− 2.3
VAS pain score at the operation site (mean +/− SEM) ([3]; 12 hr): 8.2 +/− 3.8
VAS pain score at the operation site (mean +/− SEM) ([3]; 24 hr): 1.9 +/− 1.0
VAS pain score at the operation site (mean +/− SEM) ([3]; 48 hr): 5.9 +/− 2.5
VAS pain score at the operation site (mean +/− SEM) ([3]; 72 hr): 10.6 +/− 3.5
solubility in alcohol, ether, benzene and chloroform [4]: freely soluble
solubility in water [4]: practically insoluble
effect on radiation induced hyperalgesia ([5]; final doses of 25 mg/kg or less, prior to ultra violet radiation): prevented radiation induced hyperalgesia
effect on pain threshold ([5]; final doses of 25 mg/kg or less): did not elevate the pain threshold above normal range
effect on pain threshold ([5]; final doses of 50 mg/kg or greater): pain threshold elevated

CN(C)CCC=C1c2ccccc2CCc2ccccc21 [amitriptyline]
action when administered locally [6]: produced local antinociceptive actions

CNCCCN1c2ccccc2CCc2ccccc21 [desipramine]
action when administered locally [6]: produced local antinociceptive actions

CN1C(C(=O)Nc2ccccn2)=C(O)c2ccccc2S1(=O)=O [piroxicam]
patients experiencing gross bleeding and ulceration [7]: up to 4%
